This is an account of results in patent US20030220254A1, “Composition and method for preparation of an oral dual controlled release formulation of a protein and inhibitor” (TEXAS TECH UNIVERSITY SYSTEM, priority 2002, published 2003).

The target of data set [1] is α-chymotrypsin (Bos taurus, UniProt P00766). In words: Stability of sCT in the presence of α-chymotrypsin and protease inhibitors. Type of data set: biochemical. More on the design: half-life: dose or concentration left out as unconfirmed. The note with it: no inhibitor. As for the experimental part: (§1) sCT solutions (50 μM) were incubated at 37° C. in 50 mM Tris buffer containing 0.1 mM calcium chloride (pH 8.0). Degradation profiles generated in the presence of 0.5 μM trypsin and 0.1 μM α-chymotrypsin served as controls. The concentrations were selected on the basis of a reported study (Schilling R. J. and Mitra A. K. 1991). DkOVM and TkOVM were evaluated at different enzyme-to-inhibitor ratios to evaluate their inhibition of sCT degradation. CkOVM and aprotinin were used at 1:1 enzyme-to-inhibitor ratio in order to compare the efficacy of various protease inhibitors used. sCT and enzyme solutions were incubated for 15 min at 37° C. before starting the experiments. Samples were taken after 0, 5, 15, 30 and 60 min and immediately diluted with cold 1% trifluoroacetic acid (TFA) to reduce the pH to 2.5. The samples were analysed at 4° C. by HPLC given below. Plots of sCT remaining against time were generated. 160 values (amount of sCT (%) remaining after 60 min) were used to compare the efficacy of the ovomucoids. Similar studies were performed with aprotinin. The study was also conducted by incubating 50 μM sCT solutions with 0.5 μM trypsin and 0.1 μM α-chymotrypsin added together and the efficacy of TkOVM was evaluated at various ratios.
(§2) sCT was analyzed by means of our validated HPLC method (Shah R B, et al., 2003). Briefly, a computer controlled Varian Chromatography workstation consisting of the following components was used: Two Dynamax SD-200 pumps, an AI-200A autosampler fitted with a 100 μl injection loop, a Dynamax UV-1 detector and Star 5.3 chromatography software. Room temperature was maintained for the column and chromatographic separations were carried out on a C-18 Vydac 218MS54 column (5 μm, 4.6×250 mm) with a pore size of 300 Å. 50 μl of samples were injected into the column which were analyzed by the reversed phase HPLC method. The mobile phase consisted of 0.05% v/v TFA-Water (A) and 0.05% v/v TFA-Acetonitrile (B). The gradient conditions were 20-35% B for 10 min, 35-37% B from 10th to 20th min and 37-20% B from 20th to 25th min at a flow rate of 1 ml/min. […] Concentrations of sCT were quantified from integrated peak areas and calculated by interpolation from an according standard curve.

For data set [2], the target named is T1, trypsin (Bos taurus, UniProt P00760).
T1 construct: gene PRSS1
T1 sequence (P00760 24-246): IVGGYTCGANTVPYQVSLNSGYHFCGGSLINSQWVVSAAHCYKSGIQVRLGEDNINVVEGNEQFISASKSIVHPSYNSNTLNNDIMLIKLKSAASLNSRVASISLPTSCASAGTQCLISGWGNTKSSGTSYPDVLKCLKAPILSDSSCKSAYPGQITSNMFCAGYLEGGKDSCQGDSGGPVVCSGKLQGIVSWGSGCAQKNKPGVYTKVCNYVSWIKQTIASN
In words: Stability of sCT in the presence of trypsin and protease inhibitors. More on the design: half-life: dose or concentration left out as unconfirmed. Type of data set: biochemical. As for the experimental part:
as §1, §2

Data set [3] deals with trypsin and α-chymotrypsin. In words: Stability of sCT with trypsin and α-chymotrypsin added together, with TkOVM. In kind it is biochemical. The note with it: pH 8, no inhibitor, read-out: Half-life (min) of hydrolysis of sCT. The method, then: as §1, with “Plots of sCT remaining against time were generated. 160 values (amount of sCT (%) remaining after 60 min) were used to compare the efficacy of the ovomucoids. Similar studies were performed with aprotinin.” left out
sCT was analyzed by means of our validated HPLC method (Shah R B, et al., 2003). […] 50 μl of samples were injected into the column which were analyzed by the reversed phase HPLC method. […] Concentrations of sCT were quantified from integrated peak areas and calculated by interpolation from an according standard curve.

Data set [4] deals with Caco-2 cell homogenate. In words: Stability of sCT in Caco-2 cell homogenate. Conditions: Caco-2 homogenate, sCT 50 μM. Type of data set: in vitro ADME, Human. As for the experimental part:
Human colon adenocarcinoma (Caco-2) cells were cultured, in an atmosphere of 5% CO2 at 37° C. in T-75 tissue culture flasks using DMEM supplemented with 10% FBS, 100 U/ml penicillin, 100 μg/ml streptomycin, 1.25 ml human Transferrin. The medium was changed every other day until the flasks reached 90% confluence (3-4 days). Caco-2 cells of less than 20 passages were used. Caco-2 homogenate was prepared according to the method of Augustijns et al. with slight modification. Briefly, the Caco-2 monolayer was washed three times with ice-cold PBS (pH 7.4). The cells were scraped off with a tissue culture scraper on ice and homogenized in 1 ml ice-cold PBS using a mechanical homogenizer. The mixture was centrifuged at 12,000 rpm for 10 min at 4° C. The resultant supernatant was used as Caco-2 homogenate. The protein content was determined using BCA assay. Tryspin and chymotrypsin assay was done for the homogenate as described below.
(§3) The degradation of sCT was studied by incubating the sCT solution to a final concentration of 50 μM with 900 μl Caco-2 cell and goat intestinal homogenates. The samples were withdrawn at 0 and 60 min and were diluted immediately with cold TFA 1%. The samples containing intestinal homogenate were centrifuged at 5000 g for 10 min to remove precipitated proteins. The supernatant was injected into HPLC to determine the sCT content.

The nature of data set [5]: in vitro. Type of data set: in vitro ADME. The note with it: goat, real gastrointestinal fluid or homogenate, pH 7.4. The method, then: Goat intestinal homogenate was prepared using a reported method for preparation of intestinal homogenate with minor modifications (Yamamoto et al., 1990). Briefly, fresh goat intestinal tissues, obtained from a local slaughter house, were washed with phosphate buffered saline (PBS) pH 7.4 at 4° C. and stored at −80° C. Immediately before each experiment, specimens were thawed at room temperature and then were washed again with PBS at 4° C. 25 g of tissue was cut from the small intestinal region and was homogenized in 10 ml PBS at 4° C. by use of a mechanical homogenizer for 5 min. The homogenate was centrifuged at 5000 g in a refrigerated (4° C.) centrifuge for 10 min to remove cellular and nuclear debris. The resulting supernatant was assayed for protein content by BCA assay with bovine serum albumin as the standard. The supernatant was also assayed for trypsin and chymotrypsin content.
as §3

Regarding `CC(C)C[C@H](NC(=O)[C@H](CCCCN)NC(=O)CNC(=O)[C@H](CC(C)C)NC(=O)[C@@H](NC(=O)[C@@H]1CSSC[C@H](N)C(=O)N[C@@H](CO)C(=O)N[C@@H](CC(N)=O)C(=O)N[C@@H](CC(C)C)C(=O)N[C@@H](CO)C(=O)N[C@@H]([C@@H](C)O)C(=O)N1)C(C)C)C(=O)N[C@@H](CO)C(=O)N[C@@H](CCC(N)=O)C(=O)N[C@@H](CCC(=O)O)C(=O)N[C@@H](CC(C)C)C(=O)N[C@@H](Cc1c[nH]cn1)C(=O)N[C@@H](CCCCN)C(=O)N[C@@H](CC(C)C)C(=O)N[C@@H](CCC(N)=O)C(=O)N[C@H](C(=O)N[C@@H](Cc1ccc(O)cc1)C(=O)N1CCC[C@H]1C(=O)N[C@@H](CCCNC(=N)N)C(=O)N[C@H](C(=O)N[C@@H](CC(N)=O)C(=O)N[C@H](C(=O)NCC(=O)N[C@@H](CO)C(=O)NCC(=O)N[C@H](C(=O)N1CCC[C@H]1C(N)=O)[C@@H](C)O)[C@@H](C)O)[C@@H](C)O)[C@@H](C)O` [sCT, salmon calcitonin], the “Amount (%) of sCT remaining at 60 min (I60)” value in data set [1] (chymotrypsin 0.1 μM) is listed as 16.18 ± 0.48%; in data set [2] (control, sCT 50 μM without enzyme), 103.76 ± 3.10%; in data set [2] (trypsin 0.5 μM, no inhibitor) it was 0.00 ± 0.00%; in data set [4], 81.46 ± 10.89%. Moreover, the half-life in data set [1] (pH 8, α-chymotrypsin, read-out: Half-life (min) of hydrolysis of sCT) came to 22.4 min; in data set [2] (pH 8, trypsin, no inhibitor, read-out: Half-life (min) of hydrolysis of sCT), 1.51 min. Further, the half-life at 50 μM in data set [3] was 0.77 min. Moreover, in data set [5], the amount remaining at 1 h, 50 μM was determined as 91.7 ± 17.6%.
